Assay results taken from patent US12509444B2, “Compounds and methods for CD73 modulation and indications therefor” (Plexxikon Inc., priority 2019, dated 2025).

Key:
human CD73 = target: T1, human CD73 (Homo sapiens, UniProt P21589); experiment: Inhibitor activity against CD73 in cell based assay (CD73 expressing CHO-K1 cells); conditions: CHO-K1 cells expressing human CD73, 150 μM AMP, 4 hours of incubation; read-out: CHO-K1 CELL VARIANT: CD73 IC50
T1 construct: expressed in transfected cells
T1 sequence (P21589 27-549): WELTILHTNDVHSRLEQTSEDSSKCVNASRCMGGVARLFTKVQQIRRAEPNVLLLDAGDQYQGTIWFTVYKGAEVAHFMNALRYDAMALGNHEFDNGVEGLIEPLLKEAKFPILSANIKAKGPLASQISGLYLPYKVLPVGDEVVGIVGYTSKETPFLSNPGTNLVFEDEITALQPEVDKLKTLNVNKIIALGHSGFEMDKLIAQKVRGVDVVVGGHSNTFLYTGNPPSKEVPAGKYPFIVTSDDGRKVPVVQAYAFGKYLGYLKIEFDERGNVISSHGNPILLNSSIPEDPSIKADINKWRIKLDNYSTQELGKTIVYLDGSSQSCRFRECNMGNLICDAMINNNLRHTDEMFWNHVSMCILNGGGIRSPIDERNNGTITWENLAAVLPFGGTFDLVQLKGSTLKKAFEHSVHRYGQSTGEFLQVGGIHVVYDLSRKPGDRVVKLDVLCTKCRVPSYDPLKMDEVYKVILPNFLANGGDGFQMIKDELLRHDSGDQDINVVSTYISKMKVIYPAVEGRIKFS
Outline: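 Residual supernatant AMP was quantified via CellTiter-Glo luminescence (1 μM ATP added, 30 min, room temperature) after a 4 h exposure of human CD73-expressing CHO-K1 cells to 150 μM AMP plus compound, top final 10 μM, 8 points. IC50 came from nonlinear regression of percent inhibition.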

[1] = target: T2, Human CD73 (amino acid residues 27-549) (Homo sapiens, UniProt P21589); experiment: CD73 enzymatic assay (luciferase-based indirect assay, CellTiter-Glo); format: biochemical; conditions: 0.4 nM CD73, 150 μM AMP, 1 hour at room temperature
T2 construct: Human CD73 (amino acid residues 27-549); His tag (N); made in house; host or cells: E. coli
T2 sequence (P21589 27-549): T1 sequence (P21589 27-549)
Outline: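 Residual AMP inhibits luciferase, so luminescence reports CD73 turnover; read with CellTiter-Glo 2.0 plus 1 μM final ATP, 30 min. Reaction used 0.4 nM N-His CD73 (27-549, E. coli), 150 μM AMP, HEPES pH 7.4 with Tween 20, 1 h at room temperature. IC50 fitted by nonlinear regression.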

| Structure (SMILES) | IC50 (human CD73) | IC50 [1] |
| --- | --- | --- |
| O=C(NC1(C2CC2)CC1)O[C@@H]1CCN(c2cnn(CCO)c(=O)c2Cl)C1 [P-0480, (R)-1-(5-chloro-1-(2-hydroxyethyl)-6-oxo-1,6-dihydropyridazin-4-yl)pyrrolidin-3-yl [1,1′-bi(cyclopropan)]-1-ylcarbamate] | 0.001 to 10 µM | 0.001 to 10 µM |
| O=C(N[C@@H]1CCC[C@@H]1O)O[C@@H]1CCN(c2cn[nH]c(=O)c2Cl)C1 [P-0481, (R)-1-(5-chloro-6-oxo-1,6-dihydropyridazin-4-yl)pyrrolidin-3-yl ((1R,2S)-2-hydroxycyclopentyl)carbamate] | 0.001 to 10 µM | 0.001 to 10 µM |
| O=C(N[C@H]1CC[C@@H](NC2CCC(F)(F)CC2)CC1)O[C@@H]1CCN(c2cn[nH]c(=O)c2Cl)C1 [P-0482, (R)-1-(5-chloro-6-oxo-1,6-dihydropyridazin-4-yl)pyrrolidin-3-yl ((1s,4S)-4-((4,4-difluorocyclohexyl)amino)cyclohexyl)carbamate] | 0.001 to 10 µM | 0.001 to 10 µM |
| N#Cc1c(N2C[C@H](OC(=O)NC3CCC(F)(F)CC3)[C@@H](F)C2)cn[nH]c1=O [P-0483, (3S,4S)-1-(5-cyano-6-oxo-1,6-dihydropyridazin-4-yl)-4-fluoropyrrolidin-3-yl (4,4-difluorocyclohexyl)carbamate] | 0.001 to 10 µM | 0.001 to 10 µM |
| N#Cc1c(N2C[C@H](OC(=O)NC3CCCC3)[C@@H](F)C2)cn[nH]c1=O [P-0484, (3S,4S)-1-(5-cyano-6-oxo-1,6-dihydropyridazin-4-yl)-4-fluoropyrrolidin-3-yl cyclopentylcarbamate] | 0.001 to 10 µM | 0.001 to 10 µM |
| N#Cc1c(N2C[C@H](OC(=O)NC3CCC(F)(F)CC3)[C@@H](F)C2)cnn(CCO)c1=O [P-0485, (3S,4S)-1-(5-cyano-1-(2-hydroxyethyl)-6-oxo-1,6-dihydropyridazin-4-yl)-4-fluoropyrrolidin-3-yl (4,4-difluorocyclohexyl)carbamate] | 0.001 to 10 µM | 0.001 to 10 µM |
| N#Cc1c(N2C[C@H](OC(=O)NC3CCCC3)[C@@H](F)C2)cnn(CCO)c1=O [P-0486, (3S,4S)-1-(5-cyano-1-(2-hydroxyethyl)-6-oxo-1,6-dihydropyridazin-4-yl)-4-fluoropyrrolidin-3-yl cyclopentylcarbamate] | 0.001 to 10 µM | 0.001 to 10 µM |
| O=C(N[C@H]1CC[C@@H](NC2CCOCC2)CC1)O[C@@H]1CCN(c2cn[nH]c(=O)c2Cl)C1 [P-0487, (R)-1-(5-chloro-6-oxo-1,6-dihydropyridazin-4-yl)pyrrolidin-3-yl ((1s,4S)-4-((tetrahydro-2H-pyran-4-yl)amino)cyclohexyl)carbamate] | 0.001 to 10 µM | 0.001 to 10 µM |
| O=C(N[C@H]1CC[C@@H](NC2CC3CCC2C3)CC1)O[C@@H]1CCN(c2cn[nH]c(=O)c2Cl)C1 (stereo partly drawn) [P-0488, (R)-1-(5-chloro-6-oxo-1,6-dihydropyridazin-4-yl)pyrrolidin-3-yl ((1R,4S)-4-(((1S,4R)-bicyclo[2.2.1]heptan-2-yl)amino)cyclohexyl)carbamate] | 0.001 to 10 µM | 0.001 to 10 µM |
| O=C(N[C@H]1CC[C@@H](NC2CCS(=O)(=O)CC2)CC1)O[C@@H]1CCN(c2cn[nH]c(=O)c2Cl)C1 [P-0489, (R)-1-(5-chloro-6-oxo-1,6-dihydropyridazin-4-yl)pyrrolidin-3-yl ((1s,4S)-4-((1,1-dioxidotetrahydro-2H-thiopyran-4-yl)amino)cyclohexyl)carbamate] | 0.001 to 10 µM | 0.001 to 10 µM |
| O=C(NC1CCN(C(=O)Nc2ccc(F)cc2F)CC1)O[C@@H]1CCN(c2cn[nH]c(=O)c2Cl)C1 [P-0490, (R)-1-(5-chloro-6-oxo-1,6-dihydropyridazin-4-yl)pyrrolidin-3-yl (1-((2,4-difluorophenyl)carbamoyl)piperidin-4-yl)carbamate] | 0.001 to 10 µM | 0.001 to 10 µM |
| O=C(NC1CCN(C(=O)Nc2cc(F)ccc2F)CC1)O[C@@H]1CCN(c2cn[nH]c(=O)c2Cl)C1 [P-0491, (R)-1-(5-chloro-6-oxo-1,6-dihydropyridazin-4-yl)pyrrolidin-3-yl (1-((2,5-difluorophenyl)carbamoyl)piperidin-4-yl)carbamate] | 0.001 to 10 µM | 0.001 to 10 µM |
| O=C(NC1CCN(C(=O)Nc2ccc(OC(F)(F)F)cc2)CC1)O[C@@H]1CCN(c2cn[nH]c(=O)c2Cl)C1 [P-0492, (R)-1-(5-chloro-6-oxo-1,6-dihydropyridazin-4-yl)pyrrolidin-3-yl (1-((4-(trifluoromethoxy)phenyl)carbamoyl)piperidin-4-yl) carbamate] | 0.001 to 10 µM | 0.001 to 10 µM |
| O=C(NC1CCN(C(=O)Nc2cccc(OC(F)F)c2)CC1)O[C@@H]1CCN(c2cn[nH]c(=O)c2Cl)C1 [P-0493, (R)-1-(5-chloro-6-oxo-1,6-dihydropyridazin-4-yl)pyrrolidin-3-yl (1-((3-(difluoromethoxy)phenyl)carbamoyl)piperidin-4-yl) carbamate] | 0.001 to 10 µM | 0.001 to 10 µM |

Results, then the molecule that gave them:

| IC50 (human CD73) | IC50 [1] | Structure (SMILES) |
| --- | --- | --- |
| 0.001 to 10 µM | 0.001 to 10 µM | O=C(NC1CCN(C(=O)Nc2ccccc2Cl)CC1)O[C@@H]1CCN(c2cn[nH]c(=O)c2Cl)C1 [P-0494, (R)-1-(5-chloro-6-oxo-1,6-dihydropyridazin-4-yl)pyrrolidin-3-yl (1-((2-chlorophenyl)carbamoyl)piperidin-4-yl)carbamate] |
| 0.001 to 10 µM | 0.001 to 10 µM | O=C(NC1CCN(C(=O)Nc2cc(Cl)cc(Cl)c2)CC1)O[C@@H]1CCN(c2cn[nH]c(=O)c2Cl)C1 [P-0495, (R)-1-(5-chloro-6-oxo-1,6-dihydropyridazin-4-yl)pyrrolidin-3-yl (1-((3,5-dichlorophenyl)carbamoyl)piperidin-4-yl)carbamate] |
| 0.001 to 10 µM | 0.001 to 10 µM | N#Cc1c(N2CC[C@@H](OC(=O)NC3CCCC3)C2)cnn(CCO)c1=O [P-0496, (R)-1-(5-cyano-1-(2-hydroxyethyl)-6-oxo-1,6-dihydropyridazin-4-yl)pyrrolidin-3-yl cyclopentylcarbamate] |
| 0.001 to 10 µM | 0.001 to 10 µM | N#Cc1c(N2CC[C@@H](OC(=O)NC3CCC(F)(F)CC3)C2)cnn(CCO)c1=O [P-0497, (R)-1-(5-cyano-1-(2-hydroxyethyl)-6-oxo-1,6-dihydropyridazin-4-yl)pyrrolidin-3-yl (4,4-difluorocyclohexyl)carbamate] |
| 0.001 to 10 µM | 0.001 to 10 µM | Cc1onc(C(=O)N2CCC(NC(=O)O[C@@H]3CCN(c4cn[nH]c(=O)c4Cl)C3)CC2)c1C [P-0498, (R)-1-(5-chloro-6-oxo-1,6-dihydropyridazin-4-yl)pyrrolidin-3-yl (1-(4,5-dimethylisoxazole-3-carbonyl)piperidin-4-yl)carbamate] |
| 0.001 to 10 µM | 0.001 to 10 µM | Cc1cc(C(=O)N2CCC(NC(=O)O[C@@H]3CCN(c4cn[nH]c(=O)c4Cl)C3)CC2)no1 [P-0499, (R)-1-(5-chloro-6-oxo-1,6-dihydropyridazin-4-yl)pyrrolidin-3-yl (1-(5-methylisoxazole-3-carbonyl)piperidin-4-yl)carbamate] |
| 0.001 to 10 µM | 0.001 to 10 µM | Cc1nc(C)c(C(=O)N2CCC(NC(=O)O[C@@H]3CCN(c4cn[nH]c(=O)c4Cl)C3)CC2)o1 [P-0500, (R)-1-(5-chloro-6-oxo-1,6-dihydropyridazin-4-yl)pyrrolidin-3-yl (1-(2,4-dimethyloxazole-5-carbonyl)piperidin-4-yl)carbamate] |
| 0.001 to 10 µM | 0.001 to 10 µM | Cc1nc(C(=O)N2CCC(NC(=O)O[C@@H]3CCN(c4cn[nH]c(=O)c4Cl)C3)CC2)cs1 [P-0501, (R)-1-(5-chloro-6-oxo-1,6-dihydropyridazin-4-yl)pyrrolidin-3-yl (1-(2-methylthiazole-4-carbonyl)piperidin-4-yl)carbamate] |
| 0.001 to 10 µM | 0.001 to 10 µM | Cc1occc1C(=O)N1CCC(NC(=O)O[C@@H]2CCN(c3cn[nH]c(=O)c3Cl)C2)CC1 [P-0502, (R)-1-(5-chloro-6-oxo-1,6-dihydropyridazin-4-yl)pyrrolidin-3-yl (1-(2-methylfuran-3-carbonyl)piperidin-4-yl)carbamate] |
| 0.001 to 10 µM | 0.001 to 10 µM | Cc1ncoc1C(=O)N1CCC(NC(=O)O[C@@H]2CCN(c3cn[nH]c(=O)c3Cl)C2)CC1 [P-0503, (R)-1-(5-chloro-6-oxo-1,6-dihydropyridazin-4-yl)pyrrolidin-3-yl (1-(4-methyloxazole-5-carbonyl)piperidin-4-yl)carbamate] |
| 0.001 to 10 µM | 0.001 to 10 µM | Cc1noc(C)c1C(=O)N1CCC(NC(=O)O[C@@H]2CCN(c3cn[nH]c(=O)c3Cl)C2)CC1 [P-0504, (R)-1-(5-chloro-6-oxo-1,6-dihydropyridazin-4-yl)pyrrolidin-3-yl (1-(3,5-dimethylisoxazole-4-carbonyl)piperidin-4-yl)carbamate] |
